Columns and labels:
EKVX [1] = assay: Growth inhibition of human EKVX cells assessed as cell growth at 0.3 uM incubated for 48 hrs by sulforhodamine B assay relative to control; assay type: functional; conditions: read-out: Activity
LOX IMVI [2] = assay: Growth inhibition of human LOXIMVI cells assessed as cell growth at 0.3 uM incubated for 48 hrs by sulforhodamine B assay relative to control; assay type: functional; conditions: read-out: Activity
[3] = molecular target: Serine/threonine-protein kinase B-raf (Homo sapiens, UniProt P15056, V600E); assay: Inhibition of human BRAF V600E mutant using MEK1 as substrate in presence of [33P]ATP by Hotspot assay
Chain of Serine/threonine-protein kinase B-raf (P15056 2-766 V600E limits assumed): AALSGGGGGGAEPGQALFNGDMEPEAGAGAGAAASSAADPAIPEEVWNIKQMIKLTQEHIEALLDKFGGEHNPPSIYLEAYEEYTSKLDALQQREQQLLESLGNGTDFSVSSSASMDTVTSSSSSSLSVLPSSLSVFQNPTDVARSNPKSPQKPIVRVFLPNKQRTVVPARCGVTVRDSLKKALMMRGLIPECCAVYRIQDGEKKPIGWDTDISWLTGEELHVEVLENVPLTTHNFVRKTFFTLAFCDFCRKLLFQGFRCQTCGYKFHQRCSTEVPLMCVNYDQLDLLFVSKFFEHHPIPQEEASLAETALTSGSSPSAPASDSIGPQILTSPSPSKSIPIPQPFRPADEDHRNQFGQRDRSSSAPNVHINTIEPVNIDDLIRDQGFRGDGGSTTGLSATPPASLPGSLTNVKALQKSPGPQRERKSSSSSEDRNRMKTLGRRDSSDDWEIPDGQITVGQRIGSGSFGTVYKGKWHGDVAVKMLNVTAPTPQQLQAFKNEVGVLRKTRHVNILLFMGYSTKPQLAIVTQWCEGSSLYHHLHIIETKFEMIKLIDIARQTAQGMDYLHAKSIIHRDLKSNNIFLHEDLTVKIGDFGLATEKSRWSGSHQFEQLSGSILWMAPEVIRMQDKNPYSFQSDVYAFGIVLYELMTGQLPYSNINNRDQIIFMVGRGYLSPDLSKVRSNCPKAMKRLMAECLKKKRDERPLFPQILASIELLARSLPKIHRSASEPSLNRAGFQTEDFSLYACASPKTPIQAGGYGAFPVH

SK-MEL-2 = assay: Growth inhibition of human SK-MEL-2 cells assessed as cell growth at 50 uM incubated for 48 hrs by sulforhodamine B assay relative to control; assay type: functional; conditions: SK-MEL-2, 48 h, read-out: Activity
A498 = assay: Growth inhibition of human A498 cells assessed as cell growth at 0.5 uM incubated for 48 hrs by sulforhodamine B assay relative to control; assay type: functional; conditions: A498, 48 h, read-out: Activity
SF-268 [4] = assay: Growth inhibition of human SF268 cells assessed as cell growth at 0.005 uM incubated for 48 hrs by sulforhodamine B assay relative to control; assay type: functional; conditions: SF-268, 48 h, read-out: Activity
UO-31 = assay: Growth inhibition of human UO31 cells assessed as cell growth at 0.005 uM incubated for 48 hrs by sulforhodamine B assay relative to control; assay type: functional; conditions: UO-31, 48 h, read-out: Activity
LOX IMVI [5] = assay: Growth inhibition of human LOXIMVI cells assessed as cell growth at 0.05 uM incubated for 48 hrs by sulforhodamine B assay relative to control; assay type: functional; conditions: read-out: Activity
HT-29 = assay: Growth inhibition of human HT-29 cells assessed as cell growth at 0.005 uM incubated for 48 hrs by sulforhodamine B assay relative to control; assay type: functional; conditions: HT-29, 48 h, read-out: Activity
HCT-15 [6] = assay: Growth inhibition of human HCT15 cells assessed as cell growth at 0.05 uM incubated for 48 hrs by sulforhodamine B assay relative to control; assay type: functional; conditions: HCT-15, 48 h, read-out: Activity
MDA-MB-231 = assay: Growth inhibition of human MDA-MB-231 cells assessed as cell growth at 0.05 uM incubated for 48 hrs by sulforhodamine B assay relative to control; assay type: functional; conditions: MDA-MB-231, 48 h, read-out: Activity
HCC 2998 = assay: Growth inhibition of human HCC2998 cells assessed as cell growth at 5 uM incubated for 48 hrs by sulforhodamine B assay relative to control; assay type: functional; conditions: HCC 2998, 48 h, read-out: Activity
SK-MEL-5 = assay: Growth inhibition of human SK-MEL-5 cells assessed as cell growth at 50 uM incubated for 48 hrs by sulforhodamine B assay relative to control; assay type: functional; conditions: SK-MEL-5, 48 h, read-out: Activity
SK-OV-3 = assay: Growth inhibition of human SKOV3 cells assessed as cell growth at 0.5 uM incubated for 48 hrs by sulforhodamine B assay relative to control; assay type: functional; conditions: SK-OV-3, 48 h, read-out: Activity
SR = assay: Growth inhibition of human SR cells assessed as cell growth at 50 uM incubated for 48 hrs by sulforhodamine B assay relative to control; assay type: functional; conditions: read-out: Activity
HCT-15 [7] = assay: Growth inhibition of human HCT15 cells assessed as cell growth at 0.005 uM incubated for 48 hrs by sulforhodamine B assay relative to control; assay type: functional; conditions: HCT-15, 48 h, read-out: Activity
UACC-257 = assay: Growth inhibition of human UACC257 cells assessed as cell growth at 5 uM incubated for 48 hrs by sulforhodamine B assay relative to control; assay type: functional; conditions: UACC-257, 48 h, read-out: Activity
HCT-15 [8] = assay: Growth inhibition of human HCT15 cells assessed as cell growth at 0.5 uM incubated for 48 hrs by sulforhodamine B assay relative to control; assay type: functional; conditions: HCT-15, 48 h, read-out: Activity
NCI-H226 = assay: Growth inhibition of human NCI-H226 cells assessed as cell growth at 50 uM incubated for 48 hrs by sulforhodamine B assay relative to control; assay type: functional; conditions: NCI-H226, 48 h, read-out: Activity
HL-60(TB) = assay: Growth inhibition of human HL-60(TB) cells assessed as cell growth at 5 uM incubated for 48 hrs by sulforhodamine B assay relative to control; assay type: functional; conditions: HL-60, 48 h, read-out: Activity
NCI-H460 = assay: Growth inhibition of human NCI-H460 cells assessed as cell growth at 5 uM incubated for 48 hrs by sulforhodamine B assay relative to control; assay type: functional; conditions: NCI-H460, 48 h, read-out: Activity
COLO 205 = assay: Growth inhibition of human COLO205 cells assessed as cell growth at 50 uM incubated for 48 hrs by sulforhodamine B assay relative to control; assay type: functional; conditions: COLO 205, 48 h, read-out: Activity
SN12C = assay: Growth inhibition of human SN12C cells assessed as cell growth at 0.05 uM incubated for 48 hrs by sulforhodamine B assay relative to control; assay type: functional; conditions: read-out: Activity
EKVX [9] = assay: Growth inhibition of human EKVX cells assessed as cell growth at 0.05 uM incubated for 48 hrs by sulforhodamine B assay relative to control; assay type: functional; conditions: read-out: Activity
MOLT-4 = assay: Growth inhibition of human MOLT4 cells assessed as cell growth at 5 uM incubated for 48 hrs by sulforhodamine B assay relative to control; assay type: functional; conditions: MOLT-4, 48 h, read-out: Activity
SK-MEL-28 = assay: Growth inhibition of human SK-MEL-28 cells assessed as cell growth at 50 uM incubated for 48 hrs by sulforhodamine B assay relative to control; assay type: functional; conditions: SK-MEL-28, 48 h, read-out: Activity
SF-268 [10] = assay: Growth inhibition of human SF268 cells assessed as cell growth at 0.5 uM incubated for 48 hrs by sulforhodamine B assay relative to control; assay type: functional; conditions: SF-268, 48 h, read-out: Activity
HOP-92 [11] = assay: Growth inhibition of human HOP92 cells assessed as cell growth at 0.05 uM incubated for 48 hrs by sulforhodamine B assay relative to control; assay type: functional; conditions: HOP-92, 48 h, read-out: Activity
HOP-92 [12] = assay: Growth inhibition of human HOP92 cells assessed as cell growth at 0.5 uM incubated for 48 hrs by sulforhodamine B assay relative to control; assay type: functional; conditions: HOP-92, 48 h, read-out: Activity
SF-539 = assay: Growth inhibition of human SF539 cells assessed as cell growth at 0.05 uM incubated for 48 hrs by sulforhodamine B assay relative to control; assay type: functional; conditions: SF-539, 48 h, read-out: Activity
PC-3 = assay: Growth inhibition of human PC3 cells assessed as cell growth at 5 uM incubated for 48 hrs by sulforhodamine B assay relative to control; assay type: functional; conditions: PC-3, 48 h, read-out: Activity
DU-145 = assay: Growth inhibition of human DU145 cells assessed as cell growth at 0.5 uM incubated for 48 hrs by sulforhodamine B assay relative to control; assay type: functional; conditions: DU-145, 48 h, read-out: Activity
M14 = assay: Growth inhibition of human M14 cells assessed as cell growth at 5 uM incubated for 48 hrs by sulforhodamine B assay relative to control; assay type: functional; conditions: M14, 48 h, read-out: Activity
KM12 = assay: Growth inhibition of human KM12 cells assessed as cell growth at 5 uM incubated for 48 hrs by sulforhodamine B assay relative to control; assay type: functional; conditions: KM12, 48 h, read-out: Activity

COc1cc2cc(Oc3ccc(NC(=O)Nc4ccc(Cl)c(C(F)(F)F)c4)cc3)c(C)nc2cc1OC
growth at 0.3 µM (EKVX [1]): 94%
growth at 0.3 µM (LOX IMVI [2]): 101%
IC50 [3]: 260 nM

COc1cc2cc(Oc3ccc(NC(=O)Nc4cccc(C(F)(F)F)c4)cc3)c(C)nc2cc1OC
growth at 50 µM (SK-MEL-2): -87%
growth at 0.5 µM (A498): 85%
growth at 0.005 µM (SF-268 [4]): 90%
growth at 0.005 µM (UO-31): 90%
growth at 0.05 µM (LOX IMVI [5]): 96%
growth at 0.005 µM (HT-29): 100%
growth at 0.05 µM (HCT-15 [6]): 94%
growth at 0.05 µM (MDA-MB-231): 95%
growth at 5 µM (HCC 2998): 26%
growth at 50 µM (SK-MEL-5): -100%
growth at 0.5 µM (SK-OV-3): 101%
growth at 50 µM (SR): -57%
growth at 0.005 µM (HCT-15 [7]): 96%
growth at 5 µM (UACC-257): -13%
growth at 0.5 µM (HCT-15 [8]): 92%
growth at 50 µM (NCI-H226): -67%
growth at 5 µM (HL-60(TB)): -13%
growth at 5 µM (NCI-H460): 5%
growth at 50 µM (COLO 205): -88%
growth at 0.05 µM (SN12C): 97%
growth at 0.05 µM (EKVX [9]): 102%
growth at 5 µM (MOLT-4): 4%
growth at 50 µM (SK-MEL-28): -74%
growth at 0.5 µM (SF-268 [10]): 96%
growth at 0.05 µM (HOP-92 [11]): 96%
growth at 0.5 µM (HOP-92 [12]): 90%
growth at 0.05 µM (SF-539): 96%
growth at 5 µM (PC-3): 3%
growth at 0.5 µM (DU-145): 104%
growth at 5 µM (M14): 14%
growth at 5 µM (KM12): 5%

Reference: ChEMBL document CHEMBL3994622, “Design and synthesis of new RAF kinase-inhibiting antiproliferative quinoline derivatives. Part 2: Diarylurea derivatives” (Eur J Med Chem, 2017)
